Experimental data from PubChem BioAssay (NCI).
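Each compound was tested at five concentrations against cells in 96-well plates for 48 hours. Definition used: TGI = concentration required for complete inhibition of growth.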

Assays:
Assay in all cases: growth of human tumour cells (NCI), 48 h
PC-3 prostate = tested on: PC-3 prostate
CCRF-CEM leukemia = tested on: CCRF-CEM leukemia
RPMI-8226 leukemia = tested on: RPMI-8226 leukemia
SK-MEL-28 melanoma = tested on: SK-MEL-28 melanoma
A549 NSCLC = tested on: A549 NSCLC
LOX IMVI melanoma = tested on: LOX IMVI melanoma
NCI-H460 lung = tested on: NCI-H460 lung
T-47D breast = tested on: T-47D breast
SF-295 CNS = tested on: SF-295 CNS
SR leukemia = tested on: SR leukemia
OVCAR-4 ovarian = tested on: OVCAR-4 ovarian
HCT-15 colon = tested on: HCT-15 colon
IGROV1 ovarian = tested on: IGROV1 ovarian

Structure (SMILES) | TGI (PC-3 prostate) | TGI (CCRF-CEM leukemia) | TGI (RPMI-8226 leukemia) | TGI (SK-MEL-28 melanoma) | TGI (A549 NSCLC) | TGI (LOX IMVI melanoma) | TGI (NCI-H460 lung) | TGI (T-47D breast) | TGI (SF-295 CNS) | TGI (SR leukemia) | TGI (OVCAR-4 ovarian) | TGI (HCT-15 colon) | TGI (IGROV1 ovarian)
CCOC(=O)C(=CNC(=S)N=Nc1c(O)[nH]c2ccccc12)C(=O)OCC | > 100 µM | > 100 µM | > 100 µM | > 100 µM | > 100 µM | > 100 µM | > 100 µM | > 100 µM | > 100 µM | > 100 µM | > 100 µM | – | –
CCOC(=O)[C@@]1(C)CC(O)C(=O)N1C (stereo partly specified) | > 100 µM | > 100 µM | > 100 µM | > 100 µM | > 100 µM | > 100 µM | – | > 100 µM | > 100 µM | > 100 µM | > 100 µM | > 100 µM | > 100 µM
O[C@@H]1CCC[C@@H]2NC[C@@H](c3ccc4c(c3)OCO4)[C@H]12 | > 100 µM | > 100 µM | > 100 µM | > 100 µM | > 100 µM | > 100 µM | > 100 µM | > 100 µM | > 100 µM | > 100 µM | > 100 µM | > 100 µM | > 100 µM
Cc1ccc(S(=O)(=O)N/N=C2\CC3CC4CCC2C4C3)cc1 (stereo unspecified) | > 100 µM | > 100 µM | > 100 µM | > 100 µM | > 100 µM | > 100 µM | > 100 µM | > 100 µM | > 100 µM | > 100 µM | > 100 µM | > 100 µM | > 100 µM
CCN(CC)c1ccc(/C=C2\CCc3ccc([N+](=O)[O-])cc3C2=O)cc1 | > 100 µM | > 100 µM | > 100 µM | > 100 µM | > 100 µM | > 100 µM | > 48.9 µM | > 100 µM | 7.55 µM | > 100 µM | > 100 µM | > 100 µM | > 100 µM
O=C(CN1CCCCC1)Nc1ccc2c(c1)C1Oc3ccccc3CC1CO2 (stereo unspecified) | 35 µM | > 100 µM | > 100 µM | – | > 100 µM | 30 µM | – | 52 µM | 36.4 µM | > 100 µM | – | 35.1 µM | 58 µM
O=C(N/N=C\c1cccc2ccccc12)Nc1cccc2ccccc12 | > 100 µM | > 100 µM | – | > 100 µM | > 100 µM | > 100 µM | > 100 µM | > 100 µM | – | 13.6 µM | – | > 100 µM | > 100 µM
C=CC(=O)N1C/C(=C\c2ccc([N+](=O)[O-])cc2)C(=O)/C(=C/c2ccc([N+](=O)[O-])cc2)C1 | 0.361 µM | – | > 100 µM | 1.74 µM | 1.72 µM | 0.18 µM | 1.21 µM | 1.79 µM | 0.603 µM | > 100 µM | 1.33 µM | 0.272 µM | 0.419 µM
Cc1c(Cl)cccc1N=NC(=O)NNc1cccc(Cl)c1C | 26.1 µM | 42.6 µM | > 100 µM | 30.1 µM | 45.2 µM | 35.7 µM | 31.2 µM | 24.2 µM | – | 95 µM | 25.9 µM | 30 µM | 19.6 µM
